Data taken from US12115178B2, “Acylated active agents and methods of their use for the treatment of autoimmune disorders” (Flagship Pioneering Innovations V, Inc., priority 2018, dated 2024).

Key:
[1] = Assay 1. Stability in Simulated Gastric Fluid (SGF); format: in vitro ADME; conditions: SGF pH 1.6 with pepsin, 1 μM, 37° C.
Outline: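 Compound at 1 μM final (from 1 mM DMSO stock) incubated at 37° C in SGF: NaCl medium at pH 1.6 with FaSSIF powder and 0.1 mg/mL pepsin, prepared fresh. Aliquots taken at T0 and regular intervals, quenched with equal volume acetonitrile; LC/MS gives degradation rate.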

[2] = Assay 2. Stability in Simulated Intestinal Fluid (SIF); format: in vitro ADME; conditions: SIF pH 6.7 with pancreatin, 1 μM, 37° C.
Outline: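 Compounds at 1 µM (from 1 mM DMSO stock) were incubated at 37 °C with agitation in simulated intestinal fluid: FaSSIF in pH 6.7 phosphate buffer with pancreatin. Aliquots taken from T0 onward were quenched with acetonitrile and analyzed by LC/MS for degradation rate.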

CD4+CD25+ Treg cells = experiment: In vivo induction of CD4+CD25+ Treg cells in high-fat diet fed mice; conditions: C57BL/6 mice on high-fat diet, 6% in diet ad libitum; compared to EGCG, acetate, or their combination
Excerpt: Acylated active agents disclosed herein may be useful in modulating autoimmunity markers and for treating autoimmune disorders.

neutrophil = experiment: Neutrophil chemokine production assay; format: cell-based, human; conditions: 12 h
Method: A volume 25 mL of human blood was layered over 15 mL of Histopaque®-1077 and centrifuged at 500 g, RT, for 30 min with no break applied to the centrifuge. The PBMC band and Histopaque®-1077 layer were removed leaving behind the bottom red layer which was mixed with 40 mL of 1× red blood cell (RBC) lysis buffer (Sigma-Aldrich) was and split into two 50 mL tubes. The volume for both fractions was brought to 50 mL with RBC lysis buffer, mixed by inversion, and then incubated at RT for 10 min. Solutions were centrifuged at 250 g, for 10 min at RT and the supernatant liquids removed. The reddish pellets were re-suspended in 1 mL of RBC lysis buffer and combined. The cell suspension was incubated for 5 min at RT in RBC lysis buffer. After incubation 45 mL of Hanks Balanced Salt Solution with no calcium, magnesium or phenol red (HBSS−) was added, the cell suspension was spun (250 g for 10 min at RT), and supernatant liquids were removed. The white pellet was re-suspended in 1 mL of HBSS−, and cell counts were determined. The neutrophil cell suspension was brought to a concentration of 1.11e6 cells/mL in RPMI complete (Sigma-Aldrich), and 180 μL of cell suspension was transferred to all wells within a sterile 96-well tissue culture treated plate resulting in 2.0e5 cells/well. […] After incubation, 10 μL of 2 μg/mL LPS solution in RPMI complete was added to each well except for control wells, which received an additional 10 μL of media. Cells were incubated for 12 h (37° C., 5% CO2), after which plates were centrifuged at 250 g, RT, for 5 min and supernatant liquids were obtained and stored at −80° C. until analyzed via Luminex® Multiplex Assay for various chemokines and cytokines. Three data points were acquired from two different blood donors and averaged.

naïve CD4+ T cells = experiment: Human regulatory T cell differentiation assay; format: cell-based; conditions: 6 days
Method: Peripheral blood mononuclear cells (PBMCs) from whole blood donated by health volunteers were separated by Ficoll-Paque gradient centrifugation and naïve CD4^+ T cells were subsequently isolated using magnet beads (EasySep™ Human Naïve CD4^+ T Cell Isolation Kit, Cambridge, MA). For regulatory T cell (Treg) differentiation assay, naïve CD4^+ T cells were cultured (1-10×10^4 cells) in CTS OpTmizer medium for 6 days and stimulated with 5 ng/ml TGF-β, 100 U/ml IL-2, and ImmunoCult™ Human […] T Cell Activator; Stemcell #10990) with/without our Compounds. Cell viability was determined using a viability dye (eBioscience Fixable Viability Dye eFluor 780: ThermoFisher 65-0865-14) at 1:500 dilution. The cells were gated for Treg, defined as Live, CD11c^−, CD14^−, CD19^−, CD8^−, CD4^+, CD3^+, CD25^+, FOXP3^+. Percent (%) Tregs were calculated as percentage of CD4^+, CD25^+, FOXP3^+ cells over total CD4 T cells. Statistical analysis was performed with GraphPad Prism Software Using One-Way ANOVA.

AhR = AhR activation in Caco-2 cells through CYP1A1 mRNA expression; conditions: overnight
Method: Caco-2 cells from American Type Culture Collection (ATCC) were plated in a sterile tissue culture treated 96-well plate (ThermoFisher) at […], and grown overnight at 37° C., 5% CO2 in DMEM complete (Gibco) in order to achieve confluence. After the incubation medium was aspirated off of the Caco-2 monolayers, tissues were then washed with 200 μL of warmed PBS solution, and subsequently 190 μL of pre-warmed growth medium was added to each well. Compounds of interest were diluted at a 20× concentration in growth medium containing 2% DMSO, and 10 μL of compound solutions were added to respective wells in triplicate. Compounds where incubated overnight at 37° C., 5% CO2. 2-(1′H-indole-3′-carbonyl)-thiazole-4-carboxylic acid methyl ester (ITE) was used as the positive control for AhR activation at 1 and 100 μM concentrations. At the end of the incubation, medium was aspirated off of the Caco-2 cells, and the cells washed with 100 μL of cold PBS solution. RNA was extracted via the TaqMan™ Gene Expression Cells-to-CT™ Kit (ThermoFisher) according to the manufacturers protocol. The QuantStudio 6 Flex (Applied Biosciences) was used to analyze mRNA levels of CYP1A1 using GAPDH as the endogenous control. TaqMan™ probe sets for both genes were acquired from ThermoFisher. Samples were run in triplicate and data was analyzed using the QuantStudio software and reported as linear (Table 1) and log 2(ΔΔCT) values. Statistical analysis was performed using a two-tailed t-test comparing CYP1A1 levels in the presence of each individual compound to the vehicle negative control.

Caco-2 colonocytes = experiment: Human Caco-2 barrier integrity assay (TEER); format: cell-based; conditions: 48 hours
Method: At 70-80% confluency, cells were trypsinized and seeded in 0.4 cm^2 transwell collagen I coated membranes with supplemented DMEM in both apical and basolateral compartments. Cells were seeded at a density of 200,000 cells per well and maintained for 10 days to form a polarized barrier with a TransEpithelial […] After 48 hours, TEER readings were taken again and viability was measured by CellTiter 96® AQueous One Solution Cell Proliferation Assay (Promega). The percent change in TEER over the 48 hours was determined and normalized to the 0.1% DMSO control (Table 6).

[3] = system: Primary Human Peripheral Blood Mononuclear Cells (PBMCs); experiment: Inflammatory signals in LPS-treated primary human PBMCs; format: cell-based; conditions: 100 uM, 24 hours
Method: Human donor blood (8 mL) was collected in sodium citrate CPT tubes and centrifuged at 1,600×g for 20 minutes at room temperature. Buffy coat containing PBMCs was collected and transferred to a 50 mL conical tube containing 30 mL of RPMI-1640 medium at room temperature (supplemented with penicillin-streptomycin). PBMCs samples were centrifuged at 400×g for 10 minutes at 10° C. The pelleted PBMCs were washed twice in 10 ml of RPMI-1640 medium (supplemented with penicillin-streptomycin), then resuspended in RPMI-1640 medium (supplemented with penicillin-streptomycin, fetal bovine serum, and L-Glutamine). PBMCs were filtered through a 70 micron mesh to remove any cellular debris. […] PBMCs in a 96-well plate were rested for 30 minutes in a 37° C., 5% CO2 incubator, then subsequently treated with 10 μl of indicated compound. After 2 hours 10 μL of LPS (O111:B4) 1 mg/mL was added to test wells. After 24 hours of incubation at 37° C., 5% CO2, 100 μL of cell supernatant was collected and transferred to a 96-well plate (non-tissue treated, flat bottom). The plate was centrifuged at 350×g for 5 minutes at room temperature, and then the clear supernatant transferred to a new 96-well plate (non-tissue treated, flat bottom). The remaining cells were tested for viability using CellTiter-Glo® Luminescent Cell Viability Assay (Promega). The supernatant was analyzed for TNFα, IL-6 and […] Systems), using Luminex Immunoassay Technology (MAGPIX System). Cytokine levels of LPS treated DMSO control samples were set to 100%, and compound treated samples were expressed relative to this (Table 3).

[4] = system: adoptive T-cell transfer mice; experiment: Adoptive T-cell transfer study; format: in vivo, CB-17 SCID mice; conditions: compound 44 100 mg/kg, olsalazine 30 mg/kg, through day 42, compared to the vehicle control
Excerpt: On study day 0, naïve T-cells were obtained from the spleen of 11 to 12 week-old Balb/C mice using the SCID Cell Separation Protocol with the following labelling scheme; CD4+CD45RB^highCD25− and CD4+CD45RB^lowCD25+ cell (APC CD4 Antibody (100412), FITC CD45RB Antibody (103306), PE CD25 Antibody (101904), from BioLegend, San Diego, CA, and CD4 cell enrichment kit: 19752A, Stemcell Technologies, Cambridge, MA) and the 4×10^5 of CD4^+CD45RB^highCD25− cells were transferred 6-7 weeks old CB-17 SCID mice. Recipient mice were randomized based on their body weight (n=12 mice/group), and received […] of vehicle (0.5% methyl-cellulose) (vehicle control), 0.5 mg per mouse of anti-IL-12 (positive control), 30 mg/kg of olsalazine (positive treatment group), and 100 mg/kg of compound 44 (compound treatment group) through day 42. On day 42, animals were anesthetized with Isoflurane and bled to exsanguination followed by cervical dislocation. The entire colon was removed and the overall efficacy of compound 44 was assessed based on colon length and weight per length. […] Statistical analysis was performed with GraphPad Prism (GraphPad Software). Mann-Whitney U test was used to assess significance between the vehicle control and each treatment group.

SMILES: CC(=O)Oc1cc(OC(C)=O)c2c(c1)O[C@H](c1cc(OC(C)=O)c(OC(C)=O)c(OC(C)=O)c1)[C@H](OC(=O)c1cc(OC(C)=O)c(OC(C)=O)c(OC(C)=O)c1)C2 [Compound 2, [(2R,3R)-5,7-diacetoxy-2-(3,4,5-triacetoxyphenyl)chroman-3-yl] 3,4,5-triacetoxybenzoate]
- Assay 1 (SGF) (% Remaining @ 1 hour) [1]: C (>75% of the tested compound remaining)
- Assay 2 (SIF) (% @ Remaining 4 hours) [2]: A (<25% of the tested compound remaining)
- CD4+CD25+ Treg cells (CD4+CD25+ cell counts as a percentage of all CD4+ T cells, FIG. 1) (CD4+CD25+ Treg cells): induce CD4^+CD25^+ Treg cells

SMILES: O=C(O[C@@H]1Cc2c(O)cc(O)cc2O[C@@H]1c1cc(O)c(O)c(O)c1)c1cc(O)c(O)c(O)c1 [EGCG, epigallocatechin gallate]
- % IL-8 (Vehicle + LPS = 100%) (neutrophil; 0.1 μM): − (− = >90% Vehicle)
- % MIP-1α (Vehicle + LPS = 100%) (neutrophil; 0.1 μM): − (− = >90% Vehicle)
- % MIP-1β (DMSO + LPS = 100%) (neutrophil; 0.1 μM): − (− = >90% Vehicle)
- % IL-8 (Vehicle + LPS = 100%) (neutrophil; 1.0 μM): − (− = >90% Vehicle)
- % MIP-1α (Vehicle + LPS = 100%) (neutrophil; 1.0 μM): − (− = >90% Vehicle)
- % MIP-1β (DMSO + LPS = 100%) (neutrophil; 1.0 μM): − (− = >90% Vehicle)
- Cell viability % DMSO (naïve CD4+ T cells; 100 nM): = (90%> <110%: =)
- Treg induction % DMSO (naïve CD4+ T cells; 100 nM): = (90%> <110%: =)
- Cell viability % DMSO (naïve CD4+ T cells; 1 uM): = (90%> <110%: =)
- Treg induction % DMSO (naïve CD4+ T cells; 1 uM): = (90%> <110%: =)
- Average CYP1A1 mRNA levels (AhR; 0.1 μM): − (- = <2-fold Vehicle)
- Average CYP1A1 mRNA levels (AhR; 1.0 μM): − (- = <2-fold Vehicle)
- % Change in TEER from DMSO (Caco-2 colonocytes; 100 nM + cytokines): − (<125%: −)
- % Change in TEER from DMSO (Caco-2 colonocytes; 1 μM + cytokines): − (<125%: −)

SMILES: CC(=O)O [acetate]
- % IL-8 (Vehicle + LPS = 100%) (neutrophil; 500.0 μM): − (− = >90% Vehicle)
- % MIP-1α (Vehicle + LPS = 100%) (neutrophil; 500.0 μM): + (+ = <90% Vehicle)
- % MIP-1β (DMSO + LPS = 100%) (neutrophil; 500.0 μM): + (+ = <90% Vehicle)
- % IL-8 (Vehicle + LPS = 100%) (neutrophil; 1000.0 μM): − (− = >90% Vehicle)
- % MIP-1α (Vehicle + LPS = 100%) (neutrophil; 1000.0 μM): ++ (++ = <70%Vehicle)
- % MIP-1β (DMSO + LPS = 100%) (neutrophil; 1000.0 μM): + (+ = <90% Vehicle)
- % IL-8 (Vehicle + LPS = 100%) (neutrophil; 3000.0 μM): +++ (+++ = <50% Vehicle)
- % MIP-1α (Vehicle + LPS = 100%) (neutrophil; 3000.0 μM): +++ (+++ = <50% Vehicle)
- % MIP-1β (DMSO + LPS = 100%) (neutrophil; 3000.0 μM): +++ (+++ = <50% Vehicle)
- IL1β % DMSO control [3]: = ((=) 90%> <110% DMSO)
- IL6 % DMSO control [3]: = ((=) 90%> <110% DMSO)
- TNFα % of DMSO control [3]: = ((=) 90%> <110% DMSO)
- % Change in TEER from DMSO (Caco-2 colonocytes; 1 mM + cytokines): − (<125%: −)
- % Change in TEER from DMSO (Caco-2 colonocytes; 3 mM + cytokines): − (<125%: −)

SMILES: CC(O)CC(=O)O (stereo not drawn) [beta-hydroxybutyric acid, β-hydroxybutyric acid]
- % IL-8 (Vehicle + LPS = 100%) (neutrophil; 200.0 μM): − (− = >90% Vehicle)
- % MIP-1α (Vehicle + LPS = 100%) (neutrophil; 200.0 μM): − (− = >90% Vehicle)
- % MIP-1β (DMSO + LPS = 100%) (neutrophil; 200.0 μM): + (+ = <90% Vehicle)
- % IL-8 (Vehicle + LPS = 100%) (neutrophil; 2000.0 μM): + (+ = <90% Vehicle)
- % MIP-1α (Vehicle + LPS = 100%) (neutrophil; 2000.0 μM): ++ (++ = <70%Vehicle)
- % MIP-1β (DMSO + LPS = 100%) (neutrophil; 2000.0 μM): + (+ = <90% Vehicle)
- IL1β % DMSO control [3]: − ((−) >110% DMSO)
- IL6 % DMSO control [3]: = ((=) 90%> <110% DMSO)
- TNFα % of DMSO control [3]: − ((−) >110% DMSO)
- % Change in TEER from DMSO (Caco-2 colonocytes; 200 μM + cytokines): + (125%> <150%: +)
- % Change in TEER from DMSO (Caco-2 colonocytes; 2 mM + cytokines): − (<125%: −)

SMILES: O=C(O)c1cc(/N=N/c2ccc(O)c(C(=O)O)c2)ccc1O [olsalazine, reference compound]
- colon weight per length (FIG. 3B) [4]: significantly increased the colon weight per length
